# PMC8795197, “Safety and activity of WX-0593 (Iruplinalkib) in patients with ALK- or ROS1-rearranged advanced non-small cell lung cancer: a phase 1 dose-escalation and dose-expansion trial” (Signal Transduction and Targeted Therapy, 2022)
# Read-outs that look alike come from different tables or passages of the source.
# Columns and labels:
# [1] = test system: Caco-2 cell monolayer; experiment: Caco-2 cell monolayer permeability assay; assay type: in vitro ADME
# Text: The objective of this study was to determine the bidirectional permeability and efflux ratio (ER) of the test article WX-0593 using the Caco-2 cell monolayer model.
# [2] = test system: advanced NSCLC patients with ALK or ROS1 rearrangement; experiment: Phase 1 dose-escalation phase: antitumor activity (RECIST 1.1, investigators); assay type: in vivo, human
# Experimental: The starting dose for WX-0593 was 30 mg, which was selected on the basis of preclinical toxicology studies (data unpublished), according to the International Conference on Harmonisation Guidance for Industry S9 Nonclinical Evaluation for Anticancer Pharmaceuticals.[30] Three patients were assigned to each dose level. In the dosing cohort of 30 mg, treatment included a single WX-0593 dose, followed by 7-day PK evaluation period, and subsequent daily oral dosing for continuous 21 days. In other dosing cohorts, WX-0593 was administered orally as a single dose in the 4-day PK run-in period, followed by dosing once per day in continuous 21-day cycles. The DLT observation period was the first cycle of WX-0593 treatment (the single-dose period and 21 days of multiple-dose period). Patients performed imaging evaluation at baseline, with computed tomography or magnetic resonance imaging of the chest, abdomen, pelvis, and brain. In the dose-escalation phase, the first efficacy evaluation was done after 3-week continuous administration of WX-0593 and every 6 weeks thereafter. […] If responses (CR or PR) were observed, repeat assessments were required to confirm the responses 4 weeks after the initial evaluation. […] AEs were assessed in all patients throughout this study and graded per the National Cancer Institute Common Terminology Criteria for Adverse Events version 4.03. In the dose-escalation phase, the primary endpoints were MTD, DLT, and safety assessed by investigators and the subsequent recommended dose of WX-0593. Safety parameters included TEAEs, SAEs, and TRAEs. The key secondary endpoints were PK parameters and preliminary antitumor activity of WX-0593. ORR was defined as the proportion of patients who had best overall response, including CR or PR. PFS was calculated from the date of the first dose of WX-0593 to the date of documented disease progression or death (whichever occurred first). DCR was defined as the proportion of patients who had best overall response, including CR, PR, or SD, with a duration of at least 12 weeks. TTP was calculated from the date when the first dose of WX-0593 was given to first documented disease progression. […] OS was calculated from the date when the first dose of WX-0593 was administered to the date of death from any cause. Safety analysis was performed in the SS, which was comprised of all patients treated with one dose of WX-0593 and with safety data recorded. Efficacy analysis was performed in the FAS, which was defined as all patients treated with at least one dose of WX-0593. The PK analysis set included all patients treated with at least one dose of WX-0593 and with at least one evaluable PK sample. […] Descriptive statistics were carried out to summarize patients’ baseline characteristics and safety. […] All time-to-event data (PFS, TTP, DOR, and OS) and their corresponding 95% CIs were estimated by Kaplan–Meier methods. PK parameter analyses were done with Phoenix WinNonlin version 8.0. All other statistical analyses were conducted using SAS version 9.4.
# [3] = test system: remaining 17 GPCR targets; experiment: GPCR antagonist screening assay; assay type: cell-based; details: highest dose detected
# [4] = Absorption study (IV and oral PK); assay type: in vivo, cynomolgus monkeys; details: for bioavailability: read-out: absolute bioavailability
# Experimental: Rats and cynomolgus monkeys were selected for the absorption studies based on the "Guidance on the non-clinical pharmacokinetics of medicinal products" (CFDA, 2014) and the in vitro study of species differences in liver microsomes and hepatocyte metabolism.
# In general, within the range of 0.5 mg/kg–8 mg/kg, the systemic exposure in male cynomolgus monkeys increased proportionately with the dose, while increased slightly faster than the dose in female cynomolgus monkeys.
# [5] = test system: Ba/F3 (EML4-ALK-WT); experiment: Cell proliferation inhibition assay; assay type: cell-based
# [6] = Single-dose toxicity study (acute toxicity)
structure (smiles),measurement,setting,value
COc1cc(N2CCC3(CCN(C)CC3)CC2)ccc1Nc1ncc(Cl)c(Nc2ccccc2P(C)(C)=O)n1 [WX-0593],efflux transporter substrate,[1],very likely to be a substrate of efflux transporters
same,permeability,[1]; 50 µM,high permeability
same,permeability,[1]; 0.5 and 5 µM,low permeability
same,"ORR (n/N, 95%CI)","[2]; ALK TKI naive, dose: 30, 60, 90, 120, 180, 240, 300 mg, 30 mg","66.7% (2/3, 9.4-99.2%)"
same,"ORR (n/N, 95%CI)","[2]; ALK TKI naive, dose: 30, 60, 90, 120, 180, 240, 300 mg, 90 mg","50.0% (1/2, 1.3-98.7%)"
same,"ORR (n/N, 95%CI)","[2]; ALK TKI naive, dose: 30, 60, 90, 120, 180, 240, 300 mg, 120 mg","75.0% (6/8, 34.9-96.8%)"
same,"ORR (n/N, 95%CI)","[2]; ALK TKI naive, dose: 30, 60, 90, 120, 180, 240, 300 mg, 180 mg","83.3% (5/6, 35.9-99.6%)"
same,"ORR (n/N, 95%CI)","[2]; ALK TKI naive, dose: 30, 60, 90, 120, 180, 240, 300 mg, 240 mg","60.0% (3/5, 14.7-94.7%)"
same,"ORR (n/N, 95%CI)","[2]; ALK TKI naive, dose: 30, 60, 90, 120, 180, 240, 300 mg, 300 mg","100.0% (1/1, 2.5-100.0%)"
same,DCR,[2]; ALK-rearranged patients,89.1%
same,"ORR (n/N, 95%CI)","[2]; ALK-rearranged patients, total",63.0%
same,"ORR (n/N, 95%CI)","[2]; ALK-rearranged, ALK TKI naive, dose: 30, 60, 90, 120, 180, 240, 300 mg, 30 mg","100% (2/2, 15.8-100%)"
same,"ORR (n/N, 95%CI)","[2]; ALK-rearranged, ALK TKI naive, dose: 30, 60, 90, 120, 180, 240, 300 mg, 60 mg","66.7% (2/3, 9.4-99.2%)"
same,"ORR (n/N, 95%CI)","[2]; ALK-rearranged, ALK TKI naive, dose: 30, 60, 90, 120, 180, 240, 300 mg, 120 mg","85.7% (6/7, 42.1-99.6%)"
same,"ORR (n/N, 95%CI)","[2]; ALK-rearranged, ALK TKI naive, dose: 30, 60, 90, 120, 180, 240, 300 mg, 180 mg","75.0% (3/4, 19.4-99.4%)"
same,"ORR (n/N, 95%CI)","[2]; ALK-rearranged, ALK TKI naive, dose: 30, 60, 90, 120, 180, 240, 300 mg, 300 mg","100% (1/1, 2.5-100%)"
same,"ORR (n/N, 95%CI)","[2]; ALK-rearranged, crizotinib and other ALK TKIs, dose: 30, 60, 90, 120, 180, 240, 300 mg, 120 mg","100% (1/1, 2.5-100%)"
same,"ORR (n/N, 95%CI)","[2]; ALK-rearranged, crizotinib and other ALK TKIs, total","100% (3/3, 29.2- 100%)"
same,"ORR (n/N, 95%CI)","[2]; ALK-rearranged, crizotinib only, total","40.0% (8/20, 19.1-63.9%)"
same,DCR,[2]; ROS1-rearranged patients,80.0%
same,"ORR (n/N, 95%CI)","[2]; ROS1-rearranged, crizotinib and other ALK TKIs, dose: 30, 60, 90, 120, 180, 240, 300 mg, 90 mg","0% (0/1, 0-97.5%)"
same,"ORR (n/N, 95%CI)","[2]; ROS1-rearranged, crizotinib and other ALK TKIs, total","0% (0/2, 0-84.2%)"
same,"ORR (n/N, 95%CI)","[2]; ROS1-rearranged, crizotinib only, dose: 30, 60, 90, 120, 180, 240, 300 mg, 90 mg","0% (0/1, 0-97.5%)"
same,"ORR (n/N, 95%CI)","[2]; ROS1-rearranged, crizotinib only, total","0% (0/3, 0-70.8%)"
same,median PFS,"[2]; ROS1 rearrangement, crizotinib-naive (n = 7)",3.65 months
same,"ORR (n/N, 95%CI)","[2]; baseline CNS metastasis, total","9.1% (2/22, 1.1-29.2%)"
same,"ORR (n/N, 95%CI)","[2]; baseline measurable CNS metastasis, total","33.3% (2/6,4.3-77.7%)"
same,"ORR (n/N, 95%CI)","[2]; prior crizotinib and other ALK TKI, dose: 30, 60, 90, 120, 180, 240, 300 mg, 120 mg","100% (1/1, 2.5-100%)"
same,"ORR (n/N, 95%CI)","[2]; prior crizotinib and other ALK TKI, total","100% (3/3, 29.2-100%)"
same,"DOR, median (95% CI)",[2]; total (n=54),"10.87 (10.87, NR) mo"
same,"PFS, median (95% CI)",[2]; total (n=54),"11.89 (5.03, 11.89) mo"
same,"TTP, median (95% CI)",[2]; total (n=54),"11.89 (6.44, 11.89) mo"
same,IC50,[3],> 111 µM
same,Tmax,"[4]; both sexes, cynomolgus monkey, plasma, oral gavage 0.5–8 mg/kg",2 to 3.33 h
same,half-life,"[4]; both sexes, cynomolgus monkey, plasma, oral gavage 0.5–8 mg/kg, read-out: plasma terminal half-life",3.29 to 8.14 h
same,AUC(0-t),"[4]; both sexes, cynomolgus monkey, plasma, single IV 0.5 mg/kg, read-out: AUC0-24h",323 ± 91.1 ng·h/mL
same,Vd,"[4]; both sexes, cynomolgus monkey, plasma, single IV 0.5 mg/kg, read-out: apparent volume of distribution (Vdss)",7.7 ± 1.24 L/kg
same,MRT inf,"[4]; both sexes, cynomolgus monkey, plasma, single IV 0.5 mg/kg, read-out: mean residence time (MRT0-inf)",5.03 ± 138 h
same,clearance,"[4]; both sexes, cynomolgus monkey, plasma, single IV 0.5 mg/kg, read-out: plasma clearance (CL)",26.8 ± 6.82 mL/min/kg
same,half-life,"[4]; both sexes, cynomolgus monkey, plasma, single IV 0.5 mg/kg, read-out: plasma elimination half-life T1/2 (converted)",4.37 ± 2.38 h
same,bioavailability,"[4]; both sexes, cynomolgus monkey, plasma, single oral 0.5 mg/kg",37.5%
same,bioavailability,"[4]; both sexes, cynomolgus monkey, plasma, single oral 8 mg/kg",74.7%
same,drug accumulation,"[4]; oral 2 mg/kg, 7 consecutive days",no significant drug accumulation
same,absolute bioavailability,[4]; single oral 2 mg/kg,46.6%
same,growth inhibition,[5],significantly inhibits the growth
same,drug exposure at MTD as multiple of that at the effective dose,[6]; female animals,13.7 times
same,drug exposure at MTD as multiple of that at the effective dose,[6]; male animals,9.5 times
